Assay results from ChEMBL document CHEMBL4396937, “Synthesis of new triazole fused imidazo[2,1-b]thiazole hybrids with emphasis on Staphylococcus aureus virulence factors” (Bioorg Med Chem Lett, 2019).
In brackets after ≈: the same amount, converted by molar mass. Activity calls are given as the source filed them. The calls are words filed in the database; no cut-off is given here.

Legend:
Escherichia coli [1] = assay: Bactericidal activity against Escherichia coli MTCC 739 assessed as reduction in bacterial survival incubated for 24 hrs followed by transfer of microbial suspension to agar plates and measured at 24 hrs post transfer by agar well diffusion method; assay type: functional; conditions: MTCC 739, 24 h
Micrococcus luteus [2] = assay: Bactericidal activity against Micrococcus luteus MTCC 2470 assessed as reduction in bacterial survival incubated for 24 hrs followed by transfer of microbial suspension to agar plates and measured at 24 hrs post transfer by agar well diffusion method; assay type: functional; conditions: MTCC 2470, 24 h
Raoultella planticola [3] = assay: Antibacterial activity against Klebsiella planticola MTCC 530 assessed as reduction in bacterial growth incubated for 24 hrs by agar well diffusion method; assay type: functional; conditions: MTCC 530, 24 h
Bacillus subtilis [4] = assay: Antibacterial activity against Bacillus subtilis MTCC 121 assessed as reduction in bacterial growth incubated for 24 hrs by agar well diffusion method; assay type: functional; conditions: MTCC 121, 24 h
Staphylococcus aureus [5] = assay: Antibacterial activity against Staphylococcus aureus MLS-16 MTCC 2940 assessed as reduction in bacterial growth incubated for 24 hrs by agar well diffusion method; assay type: functional; conditions: MLS-16 MTCC 2940, 24 h
Bacillus subtilis [6] = assay: Bactericidal activity against Bacillus subtilis MTCC 121 assessed as reduction in bacterial survival incubated for 24 hrs followed by transfer of microbial suspension to agar plates and measured at 24 hrs post transfer by agar well diffusion method; assay type: functional; conditions: MTCC 121, 24 h
MRC5 = assay: Cytotoxicity against human MRC5 cells assessed as reduction in cell viability incubated for 48 hrs by MTT assay; assay type: cell-based; conditions: MRC5, 48 h
Staphylococcus aureus [7] = assay: Bactericidal activity against Staphylococcus aureus MTCC 96 assessed as reduction in bacterial survival incubated for 24 hrs followed by transfer of microbial suspension to agar plates and measured at 24 hrs post transfer by agar well diffusion method; assay type: functional; conditions: MTCC 96, 24 h
Pseudomonas aeruginosa [8] = assay: Antibacterial activity against Pseudomonas aeruginosa MTCC 2453 assessed as reduction in bacterial growth incubated for 24 hrs by agar well diffusion method; assay type: functional; conditions: MTCC 2453, 24 h
Staphylococcus aureus [9] = assay: Antibacterial activity against Staphylococcus aureus MTCC 96 assessed as reduction in bacterial growth incubated for 24 hrs by agar well diffusion method; assay type: functional; conditions: MTCC 96, 24 h
Staphylococcus aureus [10] = assay: Antibiofilm activity against Staphylococcus aureus MTCC 96 assessed as inhibition of biofilm formation incubated for 48 hrs in presence of Escherichia coli MTCC 739 by FE-SEM analysis; assay type: functional, organism-based; conditions: MTCC 96, 48 h
Raoultella planticola [11] = assay: Bactericidal activity against Klebsiella planticola MTCC 530 assessed as reduction in bacterial survival incubated for 24 hrs followed by transfer of microbial suspension to agar plates and measured at 24 hrs post transfer by agar well diffusion method; assay type: functional; conditions: MTCC 530, 24 h
Staphylococcus aureus [12] = assay: Bactericidal activity against Staphylococcus aureus MLS-16 MTCC 2940 assessed as reduction in bacterial survival incubated for 24 hrs followed by transfer of microbial suspension to agar plates and measured at 24 hrs post transfer by agar well diffusion method; assay type: functional; conditions: MLS-16 MTCC 2940, 24 h
Staphylococcus aureus [13] = assay: Antibiofilm activity against Staphylococcus aureus MLS-16 MTCC 2940 assessed as inhibition of biofilm formation by crystal violet staining-based microtitre plate assay; assay type: functional, organism-based
Bacillus subtilis [14] = assay: Antibiofilm activity against Bacillus subtilis MTCC 121 assessed as inhibition of biofilm formation by crystal violet staining-based microtitre plate assay; assay type: functional, organism-based
Raoultella planticola [15] = assay: Antibiofilm activity against Klebsiella planticola MTCC 530 assessed as inhibition of biofilm formation by crystal violet staining-based microtitre plate assay; assay type: functional, organism-based
Micrococcus luteus [16] = assay: Antibacterial activity against Micrococcus luteus MTCC 2470 assessed as reduction in bacterial growth incubated for 24 hrs by agar well diffusion method; assay type: functional; conditions: MTCC 2470, 24 h
Pseudomonas aeruginosa [17] = assay: Antibiofilm activity against Pseudomonas aeruginosa MTCC 2453 assessed as inhibition of biofilm formation by crystal violet staining-based microtitre plate assay; assay type: functional, organism-based
Escherichia coli [18] = assay: Antibacterial activity against Escherichia coli MTCC 739 assessed as reduction in bacterial growth incubated for 24 hrs by agar well diffusion method; assay type: functional; conditions: MTCC 739, 24 h
Pseudomonas aeruginosa [19] = assay: Bactericidal activity against Pseudomonas aeruginosa MTCC 2453 assessed as reduction in bacterial survival incubated for 24 hrs followed by transfer of microbial suspension to agar plates and measured at 24 hrs post transfer by agar well diffusion method; assay type: functional; conditions: MTCC 2453, 24 h
Candida albicans [20] = assay: Fungicidal activity against Candida albicans MTCC 3017 assessed as reduction in fungal survival incubated for 24 hrs followed by transfer of microbial suspension to agar plates and measured at 24 hrs post transfer by agar well diffusion method; assay type: functional
Micrococcus luteus [21] = assay: Antibiofilm activity against Micrococcus luteus MTCC 2470 assessed as inhibition of biofilm formation by crystal violet staining-based microtitre plate assay; assay type: functional, organism-based
Candida albicans [22] = assay: Antifungal activity against Candida albicans MTCC 3017 assessed as reduction in fungal growth incubated for 24 hrs by agar well diffusion method; assay type: functional
Staphylococcus aureus [23] = assay: Antibiofilm activity against Staphylococcus aureus MTCC 96 assessed as inhibition of biofilm formation by crystal violet staining-based microtitre plate assay; assay type: functional, organism-based
Escherichia coli [24] = assay: Antibiofilm activity against Escherichia coli MTCC 739 assessed as inhibition of biofilm formation by crystal violet staining-based microtitre plate assay; assay type: functional, organism-based

| Structure (SMILES) | MBC (Escherichia coli [1]) [µg/mL] | MBC (Micrococcus luteus [2]) [µg/mL] | MIC (Raoultella planticola [3]) [µg/mL] | MIC (Bacillus subtilis [4]) [µg/mL] | MIC (Staphylococcus aureus [5]) [µg/mL] | MBC (Bacillus subtilis [6]) [µg/mL] | IC50 (MRC5) [µg/mL] | MBC (Staphylococcus aureus [7]) [µg/mL] | MIC (Pseudomonas aeruginosa [8]) [µg/mL] | MIC (Staphylococcus aureus [9]) [µg/mL] | MBC (Raoultella planticola [11]) [µg/mL] | MBC (Staphylococcus aureus [12]) [µg/mL] | IC50 (Staphylococcus aureus [13]) [µg/mL] | IC50 (Bacillus subtilis [14]) [µg/mL] | IC50 (Raoultella planticola [15]) [µg/mL] | MIC (Micrococcus luteus [16]) [µg/mL] | IC50 (Pseudomonas aeruginosa [17]) [µg/mL] | MIC (Escherichia coli [18]) [µg/mL] | MBC (Pseudomonas aeruginosa [19]) [µg/mL] | IC50 (Micrococcus luteus [21]) [µg/mL] | other results |
| --- | --- | --- | --- | --- | --- | --- | --- | --- | --- | --- | --- | --- | --- | --- | --- | --- | --- | --- | --- | --- | --- |
| O=C(O)c1cn(C2CC2)c2cc(N3CCNCC3)c(F)cc2c1=O [CIPROFLOXACIN] | 1.9 (≈ 5.73 µM) | 1.9 (≈ 5.73 µM) | 0.9 (≈ 2.72 µM) | 0.9 (≈ 2.72 µM) | 0.9 (≈ 2.72 µM) | 1.9 (≈ 5.73 µM) | 53.4 (≈ 161 µM) | 1.9 (≈ 5.73 µM) | 0.9 (≈ 2.72 µM) | 0.9 (≈ 2.72 µM) | 1.9 (≈ 5.73 µM) | 1.9 (≈ 5.73 µM) | 6.6 (≈ 19.9 µM) | 6.6 (≈ 19.9 µM) | 8.6 (≈ 26 µM) | 0.9 (≈ 2.72 µM) | 7.4 (≈ 22.3 µM) | 0.9 (≈ 2.72 µM) | 1.9 (≈ 5.73 µM) | 6.8 (≈ 20.5 µM) | IC50 (Staphylococcus aureus [10]): 11.6 µg/mL; MFC (Candida albicans [20]): inactive; MIC (Candida albicans [22]): inactive; IC50 (Staphylococcus aureus [23]): 6.7 µg/mL (≈ 20.2 µM) |
| O=C(c1cn(-c2ccc(F)cc2Br)nn1)c1c(-c2ccccc2)nc2sccn12 | 3.9 (≈ 8.33 µM) | 7.8 (≈ 16.7 µM) | 3.9 (≈ 8.33 µM) | 3.9 (≈ 8.33 µM) | 1.9 (≈ 4.06 µM) | 7.8 (≈ 16.7 µM) | 48.2 (≈ 103 µM) | 3.9 (≈ 8.33 µM) | 3.9 (≈ 8.33 µM) | 1.9 (≈ 4.06 µM) | 7.8 (≈ 16.7 µM) | 3.9 (≈ 8.33 µM) | 12.8 (≈ 27.3 µM) | 13.5 (≈ 28.8 µM) | 17.3 (≈ 36.9 µM) | 3.9 (≈ 8.33 µM) | 18.2 (≈ 38.9 µM) | 1.9 (≈ 4.06 µM) | 7.8 (≈ 16.7 µM) | 12.3 (≈ 26.3 µM) | IC50 (Escherichia coli [24]): 18.2 µg/mL (≈ 38.9 µM); MFC (Candida albicans [20]; MTCC 3017, 24 h): 15.6 µg/mL (≈ 33.3 µM); MIC (Candida albicans [22]; MTCC 3017, 24 h): 7.8 µg/mL (≈ 16.7 µM); IC50 (Staphylococcus aureus [23]): 13.5 µg/mL (≈ 28.8 µM) |
| O=C(c1cn(-c2ccc(Br)cc2)nn1)c1c(-c2ccc(Cl)cc2)nc2sccn12 | 7.8 (≈ 16.1 µM) | 7.8 (≈ 16.1 µM) | 3.9 (≈ 8.05 µM) | 3.9 (≈ 8.05 µM) | 7.8 (≈ 16.1 µM) | 7.8 (≈ 16.1 µM) | 37.3 (≈ 76.9 µM) | 7.8 (≈ 16.1 µM) | 3.9 (≈ 8.05 µM) | 3.9 (≈ 8.05 µM) | 15.6 (≈ 32.2 µM) | 15.6 (≈ 32.2 µM) | 14 (≈ 28.9 µM) | 13.5 (≈ 27.8 µM) | 20.5 (≈ 42.3 µM) | 3.9 (≈ 8.05 µM) | 17.5 (≈ 36.1 µM) | 3.9 (≈ 8.05 µM) | 7.8 (≈ 16.1 µM) | 16 (≈ 33 µM) | IC50 (Escherichia coli [24]): 16.2 µg/mL (≈ 33.4 µM); MFC (Candida albicans [20]; MTCC 3017, 24 h): 15.6 µg/mL (≈ 32.2 µM); MIC (Candida albicans [22]; MTCC 3017, 24 h): 7.8 µg/mL (≈ 16.1 µM); IC50 (Staphylococcus aureus [23]): 21.3 µg/mL (≈ 43.9 µM) |
